target: Wild-type cruzipain (Trypanosoma cruzi, UniProt P25779); assay: Trypanosoma cruzi cruzipain peptidase activity assay (Ki); type: biochemical; details: read-out: Ki, inhibitors of cruzain and cruzipains
Method: Unless otherwise stated, all general chemicals and biochemicals were purchased from either the Sigma Chemical Company, Poole, Dorset, U.K or from Fisher Scientific UK, Loughborough, Leicestershire, U.K. Absorbance assays were carried out in flat-bottomed 96-well plates (Spectra; Greiner Bio-One Ltd., Stonehouse, Gloucestershire, U.K.) using a SpectraMax PLUS384 plate reader (Molecular Devices, Crawley, U.K.). Fluorescence high throughput assays were carried out in either 384-well microtitre plates (Corning Costar 3705 plates, Fisher Scientific) or 96-well ‘U’ bottomed Microfluor W1 microtitre plates (Thermo Labsystems, Ashford, Middlesex, U.K.). Fluorescence assays were monitored using a SpectraMax Gemini fluorescence plate reader (Molecular Devices). For substrates employing either a 7-amino-4-methylcoumarin (AMC) or a 7-amino-4-trifluoromethylcoumarin (AFC) fluorophore, assays were monitored at an excitation wavelength of 365 nm and an emission wavelength of 450 nm and the fluorescence plate reader calibrated with AMC. For substrates employing a 3-amino-benzoyl (Abz) fluorophore, assays were monitored at an excitation wavelength of 310 nm and an emission wavelength of 445 nm; the fluorescence plate reader calibrated with 3-amino-benzamide (Fluka). Unless otherwise indicated, all the peptidase substrates were purchased from Bachem UK, St Helens, Merseyside, UK. Substrates utilizing fluorescence resonance energy transfer methodology (i.e. FRET-based substrates) were synthesized at Incenta Limited using published methods (Atherton & Sheppard, Solid Phase Peptide Synthesis, IRL Press, Oxford, U.K, 1989) and employed Abz (2-aminobenzoyl) as the fluorescence donor and 3-nitro-tyrosine [Tyr(NO2)] as the fluorescence quencher (Meldal, M. and Breddam, K., Anal. Biochem, 195, 141-147, 1991). Hydroxyethylpiperazine ethanesulfonate (HEPES), tris-hydroxylmethyl aminomethane (tris) base, bis-tris-propane and all the biological detergents (e.g. CHAPS, zwittergents, etc.) were purchased from CN Biosciences UK, Beeston, Nottinghamshire, U.K. Glycerol was purchased from Amersham Pharmacia Biotech, Little Chalfont, Buckinghamshire, U.K. Stock solutions of substrate or inhibitor were made up to 10 mM in 100% dimethylsulfoxide (DMSO) (Rathburns, Glasgow, U.K.) and diluted as appropriately required. In all cases the DMSO concentration in the assays was maintained at less than 1% (vol./vol.).
Assay protocols were based on literature precedent (Table 4; Barrett, A. J., Rawlings, N. D. and Woessner, J. F., 1998, Handbook of Proteolytic Enzymes, Academic Press, London and references therein) and modified as required to suit local assay protocols. Enzyme was added as required to initiate the reaction and the activity, as judged by the change in fluorescence upon conversion of substrate to product, was monitored over time. All assays were carried out at 25±1° C.
Wild-type cruzipain, derived from Trypanosoma cruzi Dm28 epimastigotes, was obtained from Dr. Julio Scharfstein (Instituto de Biofisica Carlos Chagas Filho, Universidade Federal do Rio de Janeiro, Rio de Janeiro, Brazil). Activity assays were carried out in 100 mM sodium phosphate, pH 6.75 containing 1 mM EDTA and 10 mM L-cysteine using 2.5 nM enzyme. […] The rate of conversion of substrate to product was derived from the slope of the increase in fluorescence monitored continuously over time.
The apparent inhibition constant (Ki) for each compound was determined on the basis that inhibition was reversible and occurred by a pure-competitive mechanism. The Ki values were calculated, from the dependence of enzyme activity as a function of inhibitor concentration, by direct regression analysis (Prism v 3.02) using Equation 2 (Cornish-Bowden, A., 1995.). [formula]

Chain of Wild-type cruzipain (P25779 whole entry): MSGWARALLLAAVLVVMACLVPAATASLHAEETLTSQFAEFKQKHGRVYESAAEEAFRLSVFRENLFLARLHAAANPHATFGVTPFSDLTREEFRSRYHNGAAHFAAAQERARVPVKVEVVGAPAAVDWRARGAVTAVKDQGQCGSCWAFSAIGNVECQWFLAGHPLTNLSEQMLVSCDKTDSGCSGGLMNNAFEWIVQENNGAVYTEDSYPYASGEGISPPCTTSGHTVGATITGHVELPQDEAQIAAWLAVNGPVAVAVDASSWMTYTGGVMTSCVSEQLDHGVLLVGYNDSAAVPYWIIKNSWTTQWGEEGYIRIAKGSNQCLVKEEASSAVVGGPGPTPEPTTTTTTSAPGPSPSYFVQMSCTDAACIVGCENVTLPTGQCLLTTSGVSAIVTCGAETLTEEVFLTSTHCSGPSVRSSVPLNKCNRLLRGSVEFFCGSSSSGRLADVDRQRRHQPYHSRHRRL

Row | Ki [µM] | Compound
1 | < 5 | Cc1ccccc1C(=O)N1CC(=O)[C@@H]2[C@H]1CCN2C(=O)[C@H](CC(C)C)NC(=O)c1ccc(N(C)C)cc1 [Example 53, (3aR,6aS)-4-Dimethylamino-N-{(1S)-3-methyl-1-[4-(2-methyl-benzoyl)-6-oxo-hexahydro-pyrrolo[3,2-b]pyrrole-1-carbonyl]-butyl}-benzamide]
2 | < 5 | Cc1ccc(C(=O)N2CC(=O)[C@@H]3[C@H]2CCN3C(=O)[C@H](CC(C)C)NC(=O)c2ccc(N(C)C)cc2)cc1 [Example 55, (3aR,6aS)-4-Dimethylamino-N-{(1S)-3-methyl-1-[4-(4-methyl-benzoyl)-6-oxo-hexahydro-pyrrolo[3,2-b]pyrrole-1-carbonyl]-butyl}-benzamide]
3 | < 5 | CC(C)C[C@H](NC(=O)c1ccc(N(C)C)cc1)C(=O)N1CC[C@@H]2[C@H]1C(=O)CN2C(=O)c1ccccn1 [Example 79, (3aR,6aS)-4-Dimethylamino-N-{(1S)-3-methyl-1-[6-oxo-4-(pyridine-2-carbonyl)-hexahydro-pyrrolo[3,2-b]pyrrole-1-carbonyl]-butyl}-benzamide]
4 | < 5 | CC(C)C[C@H](NC(=O)c1ccc(N(C)C)cc1)C(=O)N1CC[C@@H]2[C@H]1C(=O)CN2C(=O)c1ccc[n+]([O-])c1 [Example 81, (3aR,6aS)-4-Dimethylamino-N-{(1S)-3-methyl-1-[6-oxo-4-(1-oxy-pyridine-3-carbonyl)-hexahydro-pyrrolo[3,2-b]pyrrole-1-carbonyl]-butyl}-benzamide]
5 | < 5 | CC(C)C[C@H](NC(=O)c1ccc(N(C)C)cc1)C(=O)N1CC[C@@H]2[C@H]1C(=O)CN2C(=O)C1CCC1 [Example 133, (3aR,6aS)-N-[(1S)-1-(4-Cyclobutanecarbonyl-6-oxo-hexahydro-pyrrolo[3,2-b]pyrrole-1-carbonyl)-3-methyl-butyl]-4-dimethylamino-benzamide]
6 | < 5 | CC(C)C[C@H](NC(=O)c1ccc(N(C)C)cc1)C(=O)N1CC[C@@H]2[C@H]1C(=O)CN2C(=O)C1CCCNC1 (stereo partly drawn) [Example 140, (3aR,6aS)-4-Dimethylamino-N-{(1S)-3-methyl-1-[6-oxo-4-(piperidine-3-carbonyl)-hexahydro-pyrrolo[3,2-b]pyrrole-1-carbonyl]-butyl}-benzamide]
7 | < 5 | CC(C)C[C@H](NC(=O)c1ccc(N(C)C)cc1)C(=O)N1CC[C@@H]2[C@H]1C(=O)CN2C(=O)[C@@H]1CCCN1 [Example 156, (3aR,6aS)-4-Dimethylamino-N-{(1S)-3-methyl-1-[6-oxo-4-((2S)-pyrrolidine-2-carbonyl)-hexahydro-pyrrolo[3,2-b]pyrrole-1-carbonyl]-butyl}-benzamide]
8 | < 5 | CC(C)C[C@H](NC(=O)c1ccc(N(C)C)cc1)C(=O)N1CC[C@@H]2[C@H]1C(=O)CN2C(=O)[C@H]1CCCN1 [Example 157, (3aR,6aS)-4-Dimethylamino-N-{(1S)-3-methyl-1-[6-oxo-4-((2R)-pyrrolidine-2-carbonyl)-hexahydro-pyrrolo[3,2-b]pyrrole-1-carbonyl]-butyl}-benzamide]
9 | < 5 | CC(C)C[C@H](NC(=O)c1ccc(N(C)C)cc1)C(=O)N1CC[C@@H]2[C@H]1C(=O)CN2C(=O)[C@H](C)N [Example 162, (3aR,6aS)-N-{(1S)-1-[4-((2S)-2-Amino-propionyl)-6-oxo-hexahydro-pyrrolo[3,2-b]pyrrole-1-carbonyl]-3-methyl-butyl}-4-dimethylamino-benzamide]
10 | < 5 | COC(=O)NCC(=O)N1CC(=O)[C@@H]2[C@H]1CCN2C(=O)[C@H](CC(C)C)NC(=O)c1ccc(N(C)C)cc1 [Example 183, (3aS,6aR)-(2-{4-[(2S)-2-(4-Dimethylamino-benzoylamino)-4-methyl-pentanoyl]-3-oxo-hexahydro-pyrrolo[3,2-b]pyrrole-1-yl}-2-oxo-ethyl)-carbamic acid methyl ester]

Second part, the compound before the results:

Row | Compound | Ki [µM]
11 | CC(C)C[C@H](NC(=O)c1ccc(C(C)(C)C)cc1)C(=O)N1CC[C@@H]2[C@H]1C(=O)CN2C(=O)c1ccccn1 [Example 4, (3aR,6aS)-4-tert-Butyl-N-{(1S)-3-methyl-1-[6-oxo-4-(pyridine-2-carbonyl)-hexahydro-pyrrolo[3,2-b]pyrrole-1-carbonyl]-butyl}-benzamide] | < 5
12 | CC(C)(C)c1ccc(C(=O)N[C@@H](Cc2cccs2)C(=O)N2CC[C@@H]3[C@H]2C(=O)CN3C(=O)c2ccccc2)cc1 [Example 22, (3aR,6aS)-N-[(1S)-2-(4-Benzoyl-6-oxo-hexahydro-pyrrolo[3,2-b]pyrrol-1-yl)-2-oxo-1-thiophen-2-ylmethyl-ethyl]-4-tert-butyl-benzamide] | < 5
13 | CC(C)(C)c1ccc(C(=O)N[C@@H](Cc2cccs2)C(=O)N2CC[C@@H]3[C@H]2C(=O)CN3C(=O)c2cccnc2)cc1 [Example 23, (3aR,6aS)-4-tert-Butyl-N-{(1S)-2-oxo-2-[6-oxo-4-(pyridine-3-carbonyl)-hexahydro-pyrrolo[3,2-b]pyrrole-1-yl]-1-thiophen-2-ylmethyl-ethyl}-benzamide] | < 5
14 | CC(C)C[C@H](NC(=O)c1ccc(C(C)(C)C)cc1)C(=O)N1CC[C@@H]2[C@H]1C(=O)CN2C(=O)c1ccc2c(c1)OCCO2 [Example 30, (3aR,6aS)-4-tert-Butyl-N-{(1S)-1-[4-(2,3-dihydro-benzo[1,4]dioxine-6-carbonyl)-6-oxo-hexahydro-pyrrolo[3,2-b]pyrrole-1-carbonyl]-3-methyl-butyl}-benzamide] | < 5
15 | CC(C)C[C@H](NC(=O)c1ccc(C(C)(C)C)cc1)C(=O)N1CC[C@@H]2[C@H]1C(=O)CN2C(=O)c1cccc2ccccc12 [Example 33, (3aR,6aS)-tert-Butyl-N-{(1)-3-methyl-1-[4-(naphthalene-1-carbonyl)-6-oxo-hexahydro-pyrrolo[3,2-b]pyrrole-1-carbonyl-]-butyl}-benzamide] | < 5
16 | CC(C)C[C@H](NC(=O)c1ccc(C(C)(C)C)cc1)C(=O)N1CC[C@@H]2[C@H]1C(=O)CN2C(=O)c1ccccc1Cc1ccccc1 [Example 36, (3aR,6aS)-N-{(1S)-1-[4-(2-Benzyl-benzoyl)-6-oxo-hexahydro-pyrrolo[3,2-b]pyrrole-1-carbonyl]-3-methyl-butyl}-4-tert-butyl-benzamide] | < 5
17 | CC(C)C[C@H](NC(=O)c1ccc(N(C)C)cc1)C(=O)N1CC[C@@H]2[C@H]1C(=O)CN2C(=O)c1ccc(O)cc1 [Example 49, (3aR,6aS)-4-Dimethylamino-N-{(1S)-1-[4-(4-hydroxy-benzoyl)-6-oxo-hexahydro-pyrrolo[3,2-b]pyrrole-1-carbonyl]-3-methyl-butyl}-benzamide] | < 5
18 | CC(C)C[C@H](NC(=O)c1ccc(N(C)C)cc1)C(=O)N1CC[C@@H]2[C@H]1C(=O)CN2C(=O)c1ccc(S(C)(=O)=O)s1 [Example 51, (3aR,6aS)-4-Dimethylamino-N-{(1S)-1-[4-(5-methanesulfonyl-thiophene-2-carbonyl)-6-oxo-hexahydro-pyrrolo[3,2-b]pyrrole-1-carbonyl]-3-methyl-butyl}-benzamide] | < 5
19 | CC(C)C[C@H](NC(=O)c1ccc(N(C)C)cc1)C(=O)N1CC[C@@H]2[C@H]1C(=O)CN2C(=O)c1cccc[n+]1[O-] [Example 80] | < 5
20 | CC(C)C[C@H](NC(=O)c1ccc(N(C)C)cc1)C(=O)N1CC[C@@H]2[C@H]1C(=O)CN2C(=O)c1ccc(N2CCOCC2)nc1 [Example 94, (3aR,6aS)-4-Dimethylamino-N-{(1S)-3-methyl-1-[4-(6-morpholin-4-yl-pyridine-3-carbonyl)-6-oxo-hexahydro-pyrrolo[3,2-b]pyrrole-1-carbonyl]-butyl}-benzamide] | < 5
21 | CC(C)C[C@H](NC(=O)c1ccc(N(C)C)cc1)C(=O)N1CC[C@@H]2[C@H]1C(=O)CN2C(=O)c1ccccc1OC(F)(F)F [Example 168, (3aR,6aS)-4-Dimethylamino-N-{(1S)-3-methyl-1-[6-oxo-4-(2-trifluoromethoxy-benzoyl)-hexahydro-pyrrolo[3,2-b]pyrrole-1-carbonyl]-butyl}-benzamide] | < 5

Reference: patent publication US20060100431A1, “Biologically active compounds” (Amura Therapeutics Limited, priority 2002, published 2006)
